Laboratory results taken from patent US20170057954A1, “SUBSTITUTED IMIDAZO[1,2-A]PYRIDINECARBOXAMIDES AND THEIR USE” (Bayer Pharma Aktiengesellschaft, priority 2014, published 2017).

System: recombinant guanylate cyclase reporter cell line
Assay: Effect on a recombinant guanylate cyclase reporter cell line
Assay type: cell-based
Conditions: in some cases mean values for individual determinations, read-out: MEC (minimum effective concentration)
Protocol: B-2. Effect on a Recombinant Guanylate Cyclase Reporter Cell Line
The cellular activity of the compounds according to the invention is determined using a recombinant guanylate cyclase reporter cell line, as described in F. Wunder et al., Anal. Biochem. 339, 104-112 (2005).
Representative MEC values (MEC=minimum effective concentration) for the compounds of the invention are shown in the table below (in some cases as mean values for individual determinations): […]

SMILES | minimal effective concentration [µM]
Cc1cccc(NNC(=O)c2c(C)nc3c(OCc4c(F)cccc4F)cc(C)cn23)c1 [Example 39] | 0.3
Cc1cc(OCc2c(F)cccc2F)c2nc(C)c(C(=O)NNC(=O)C3CC3)n2c1 [Example 60] | 1
Cc1cc(OCc2c(F)cccc2F)c2nc(C)c(C(=O)NNc3cnc4ccccc4n3)n2c1 [Example 56] | 1
Cc1cc(OCc2c(F)cccc2F)c2nc(C)c(C(=O)NOCC(N)C(C)C)n2c1 (centres unmarked) [Example 9] | 1
CCCc1nc2c(OCc3c(F)cccc3F)cc(C)cn2c1C(=O)NN1CCOCC1 [Example 17] | 10
Cc1cc(OCc2c(F)cccc2F)c2nc(C)c(C(=O)NNC3CCS(=O)(=O)C3)n2c1 (centres unmarked) [Example 71] | 1
Cc1cc(OCc2c(F)cccc2F)c2nc(C)c(C(=O)NNc3cccc(Br)c3)n2c1 [Example 54] | 0.3
Cc1cc(OCc2c(F)cccc2F)c2nc(C)c(C(=O)NOCCN(C)C)n2c1 [Example 2] | 1
Cc1cc(OCc2c(F)cccc2F)c2nc(C)c(C(=O)NNCc3csc(C)n3)n2c1 [Example 65] | 1
O=C(NN1CCOCC1)c1cnc2c(OCc3c(F)cccc3F)cccn12 [Example 23] | 10
Cc1cc(OCc2c(F)cccc2F)c2nc(C)c(C(=O)NNc3ccc(Cl)cc3)n2c1 [Example 46] | 0.1
Cc1cc(OCc2c(F)cccc2F)c2nc(C)c(C(=O)NNC3CCCCC3)n2c1 [Example 74] | 3
Cc1cc(OCc2c(F)cccc2F)c2nc(C)c(C(=O)NNc3ccnc4c(F)cccc34)n2c1 [Example 57] | 1
CCOC(=O)CNNC(=O)c1c(C)nc2c(OCc3c(F)cccc3F)cc(C)cn12 [Example 68] | 1
Cc1cc(OCc2c(F)cccc2F)c2nc(C)c(C(=O)NOC3COC3)n2c1 [Example 6] | 1
Cc1nc2c(OCC3CCCCC3)cccn2c1C(=O)NN1CCOCC1 [Example 15] | 1
CCNNC(=O)c1c(C)nc2c(OCc3c(F)cccc3F)cc(C)cn12 [Example 61] | 10
Cc1cc(OCc2c(F)cccc2F)c2nc(C)c(C(=O)NNC3CCCC3O)n2c1 (centres unmarked) [Example 70] | 0.3
CCCCCCC(C)NNC(=O)c1c(C)nc2c(OCc3c(F)cccc3F)cc(C)cn12 (centres unmarked) [Example 42] | 3
Cc1cc(OCc2c(F)cccc2F)c2nc(C)c(C(=O)NNc3ccc4ccccc4c3)n2c1 [Example 34] | 1
Cc1cc(OCc2c(F)cccc2F)c2nc(C)c(C(=O)NNc3ccc(Cl)c(Cl)c3)n2c1 [Example 52] | 0.3

SMILES | minimal effective concentration [µM]
Cc1cc(OCc2c(F)cccc2F)c2nc(C)c(C(=O)NNc3cccc(Oc4ccccc4)c3)n2c1 [Example 36] | 10
Cc1cc(OCc2c(F)cccc2F)c2nc(C)c(C(=O)NNC(=O)CN)n2c1 [Example 75, N′-(Aminoacetyl)-8-[(2,6-difluoroenzyl)oxy]-2,6-dimethylimidazo[1,2-a]pyridine-3-carbohydrazide] | 1
Cc1cc(OCc2c(F)cccc2F)c2nc(C)c(C(=O)NNC(=O)CN(C)C)n2c1 [Example 37] | 0.1
COCCC(=O)NNC(=O)c1c(C)nc2c(OCc3c(F)cccc3F)cc(C)cn12 [Example 33] | 0.3
Cc1cc(OCc2c(F)cccc2F)c2nc(C)c(C(=O)NN3CCN(CCO)CC3)n2c1 [Example 30] | 1
Cc1cc(OCc2c(F)cccc2F)c2nc(C)c(C(=O)NOCC3CCCN3)n2c1 (centres unmarked) [Example 8] | 3
Cc1cc(OCc2c(F)cccc2F)c2nc(C)c(C(=O)NNC(=O)C3CCCC3)n2c1 [Example 31] | 0.3
Cc1cc(OCc2c(F)cccc2F)c2nc(C)c(C(=O)NNc3ccc(C(C)(C)C)cc3)n2c1 [Example 47] | 3
Cc1cc(OCc2c(F)cccc2F)c2nc(C)c(C(=O)NNC3CS(=O)(=O)CC3O)n2c1 (centres unmarked) [Example 73] | 3
CSCCNNC(=O)c1c(C)nc2c(OCc3c(F)cccc3F)cc(C)cn12 [Example 66] | 3
Cc1cc(OCc2c(F)cccc2F)c2nc(C)c(C(=O)NNCC(C)C)n2c1 [Example 27, 8-[(2,6-Difluorobenzyl)oxy]-N′-isobutyl-2,6-dimethylimidazo[1,2-a]pyridine-3-carbohydrazide] | 0.3
Cc1cc(OCc2c(F)cccc2F)c2nc(C)c(C(=O)NOCC(=O)N3CCN(c4ccccc4)CC3)n2c1 [Example 5] | 10
Cc1cc(OCc2c(F)ccc(F)c2F)c2nc(C)c(C(=O)NN3CCOCC3)n2c1 [Example 12, 2,6-Dimethyl-N-(morpholin-4-yl)-8-[(2,3,6-trifluorobenzyl)oxy]imidazo[1,2-a]pyridine-3-carboxamide] | 1
Cc1cc(OCc2c(F)cccc2F)c2nc(C)c(C(=O)NOCC3CC3)n2c1 [Example 77, N-(Cyclopropylmethoxy)-8[(2,6-difluorobenzyl)oxy]-2,6-dimethylimidazo[1,2-a]pyridine-3-carboxamide] | 0.3
Cc1cc(OCc2c(F)cccc2F)c2nc(C)c(C(=O)NNc3cc(Cl)c(C)cc3C)n2c1 [Example 58] | 0.3
COc1cc(OC)nc(NNC(=O)c2c(C)nc3c(OCc4c(F)cccc4F)cc(C)cn23)n1 [Example 43] | 0.3
Cc1cc(OCc2c(F)cccc2F)c2nc(C)c(C(=O)NOCC(=O)NCc3ccc(Cl)cc3)n2c1 [Example 4] | 3
Cc1cc(C)cc(NNC(=O)c2c(C)nc3c(OCc4c(F)cccc4F)cc(C)cn23)c1 [Example 53] | 1
Cc1cc(OCc2c(F)cccc2F)c2nc(C)c(C(=O)NNC(=O)c3nccs3)n2c1 [Example 50] | 1
Cc1cc(OCc2c(F)cccc2F)c2nc(C)c(C(=O)NNC(C)(C)C)n2c1 [Example 38] | 0.3
Cc1cc(OCc2c(F)cccc2F)c2nc(C)c(C(=O)NNCC(F)(F)F)n2c1 [Example 41] | 0.3

SMILES | minimal effective concentration [µM]
Cc1cc(OCc2c(F)cccc2F)c2nc(C)c(C(=O)NNc3nnc(C(C)(C)C)s3)n2c1 [Example 35] | 3
Cc1cc(OCc2c(F)cccc2F)c2nc(C)c(C(=O)NNC3CS(=O)(=O)CC3C)n2c1 (centres unmarked) [Example 72] | 3
COc1ccc(F)c(COc2cc(C)cn3c(C(=O)NN4CCOCC4)c(C)nc23)c1F [Example 25] | 10
Cc1cc(OCc2c(F)cccc2F)c2nc(C)c(C(=O)NOCc3ccccc3C#N)n2c1 [Example 59] | 1
Cc1cc(OCc2c(F)cccc2F)c2nc(C)c(C(=O)NNc3ccccn3)n2c1 [Example 40] | 0.3
Cc1cc(OCc2c(F)cccc2F)c2nc(C)c(C(=O)NN3CCCCCC3)n2c1 [Example 62] | 0.1
Cc1cc(OCc2c(F)cccc2F)c2nc(C)c(C(=O)NOC(C)c3ccccc3)n2c1 (racemic) [Example 78, rac-8-[(2,6-Difluorobenzyl)oxy]-2,6-dimethyl-N-(1-phenylethoxy)imidazo[1,2-a]pyridine-3-carboxamide] | 1
Cc1cc(OCc2c(F)cccc2F)c2nc(C)c(C(=O)NNC3CCS(=O)(=O)CC3)n2c1 [Example 80, 8-[(2,6-Difluorobenzyl)oxy]-N′-(1,1-dioxidotetrahydro-2H-thiopyran-4-yl)-2,6-dimethylimidazo[1,2-a]pyridine-3-carbohydrazide] | 2
C=CCONC(=O)c1c(C)nc2c(OCc3c(F)cccc3F)cc(C)cn12 [Example 28] | 0.3
Cc1cc(OC(C)c2c(F)cccc2F)c2nc(C)c(C(=O)NOCCO)n2c1 (centres unmarked) [Example 13] | 10
Cc1cc(OCc2c(F)ccc(C3CC3)c2F)c2nc(C)c(C(=O)NN3CCOCC3)n2c1 [Example 26] | 10
Cc1cc(OCc2c(F)cccc2F)c2nc(C)c(C(=O)NOC[C@H](O)CO)n2c1 [Example 11, 8-[(2,6-Difluorobenzyl)oxy]-N-{[(2R)-2,3-dihydroxypropyl]oxy}-2,6-dimethylimidazo[1,2-a]pyridine-3-carboxamide] | 1
CCCCCCC(CCC)NNC(=O)c1c(C)nc2c(OCc3c(F)cccc3F)cc(C)cn12 (centres unmarked) [Example 44] | 3
Cc1cc(OCc2c(F)cccc2F)c2nc(C)c(C(=O)NNC(C)C)n2c1 [Example 69] | 10
COCC(=O)NNC(=O)c1c(C)nc2c(OCc3c(F)cccc3F)cc(C)cn12 [Example 32] | 1
Cc1cc(OCc2c(F)cccc2F)c2nc(C)c(C(=O)NNC3CCCC3)n2c1 [Example 64] | 3
Cc1cc(OCc2c(F)cccc2F)c2nc(C)c(C(=O)NNC(=O)CN3CCOCC3)n2c1 [Example 76, 8-[(2,6-Difluorobenzyl)oxy]-2,6-dimethyl-N′-(morpholin-4-ylacetyl)imidazo[1,2-a]pyridine-3-carbohydrazide] | 0.3
CONC(=O)c1c(C)nc2c(OCc3c(F)cccc3F)cc(C)cn12 [Example 29] | 1
Cc1cc(OCc2c(F)cccc2F)c2nc(C)c(C(=O)NOCC(F)(F)F)n2c1 [Example 81, 8-[(2,6-Difluorobenzyl)oxy]-2,6-dimethyl-N-(2,2,2-trifluoroethoxy)imidazo[1,2-a]pyridine-3-carboxamide] | 0.65
Cc1cc(OCc2c(F)cccc2F)c2nc(C)c(C(=O)NN3CCC(C(F)(F)F)C3)n2c1 (centres unmarked) [Example 79, 8-[(2,6-Difluorobenzyl)oxy]-2,6-dimethyl-N-[3-(trifluoromethyl)pyrrolidin-1-yl]imidazo[1,2-a]pyridine-3-carboxamide] | 0.1
